In article PMC8197871, “Biochemical and Initial Structural Characterization of the Monocot Chimeric Jacalin OsJAC1” (International Journal of Molecular Sciences, 2021):
“And” between values parts separate entries of the source, which are not always exact repeats. Equal values may be shown once. Each block holds one molecule with its values, some of them ahead of it.

Experiments:
OsJAC1 [1] = molecular target: T1, OsJAC1 (Oryza sativa, UniProt Q306J3); assay: nano differential scanning fluorimetry; assay type: binding; details: 50 mM sugar, 4 mM DTT, 50 mM KPi pH 7.4; TM1 = JRL domain transition
T1 construct: gene JAC1; full length, DIR + JRL domains; N-terminal His6 tag and thrombin site kept; E. coli BL21(DE3), pColdIV
T1 sequence (Q306J3 1-306): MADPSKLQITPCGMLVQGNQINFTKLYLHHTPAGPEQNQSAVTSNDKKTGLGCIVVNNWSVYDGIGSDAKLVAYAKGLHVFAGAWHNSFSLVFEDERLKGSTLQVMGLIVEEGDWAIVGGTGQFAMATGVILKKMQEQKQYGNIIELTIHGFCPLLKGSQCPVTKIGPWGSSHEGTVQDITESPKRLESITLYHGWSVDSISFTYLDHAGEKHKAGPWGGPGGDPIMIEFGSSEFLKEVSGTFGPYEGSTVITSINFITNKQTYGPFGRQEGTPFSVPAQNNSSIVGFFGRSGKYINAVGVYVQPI

JRL domain of OsJAC1 = molecular target: T2, JRL domain of OsJAC1 (Oryza sativa, UniProt Q306J3); assay: nano differential scanning fluorimetry; assay type: binding; details: 50 mM sugar, 4 mM DTT, 50 mM KPi pH 7.4; 1:1 mixture with DIR domain
T2 construct: gene JAC1; isolated jacalin-related lectin domain QCPVTKIGPWGSSHEG...INAVGVYVQPI; N-terminal His6 tag and thrombin site kept; E. coli BL21(DE3), pET15b(+); thermal shifts measured in 1:1 mixture with the isolated DIR domain
T2 sequence (Q306J3 160-306): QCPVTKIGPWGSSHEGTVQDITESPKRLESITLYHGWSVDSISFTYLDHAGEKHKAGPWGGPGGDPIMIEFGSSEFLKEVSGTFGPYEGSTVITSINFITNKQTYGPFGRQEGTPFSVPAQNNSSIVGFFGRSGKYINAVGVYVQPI

DIR domain of OsJAC1 [2] = molecular target: T3, DIR domain of OsJAC1 (Oryza sativa, UniProt Q306J3, T49I); assay: nano differential scanning fluorimetry; assay type: binding; details: 50 mM sugar, 4 mM DTT, 50 mM KPi pH 7.4
T3 construct: gene JAC1; isolated dirigent domain SKLQITPCGM...FCPLLKGS; Thr to Ile point mutation (NDKKIGLG); N-terminal His6 tag and thrombin site kept; E. coli BL21(DE3), pET15b(+); dimer/tetramer by SEC
T3 sequence (Q306J3 5-159 T49I): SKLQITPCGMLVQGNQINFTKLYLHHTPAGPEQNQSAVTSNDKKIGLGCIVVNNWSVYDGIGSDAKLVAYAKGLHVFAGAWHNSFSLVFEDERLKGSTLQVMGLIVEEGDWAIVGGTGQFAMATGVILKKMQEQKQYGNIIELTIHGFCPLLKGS

OsJAC1 [3] = molecular target: T1, OsJAC1; assay: nano differential scanning fluorimetry; assay type: binding; details: 50 mM sugar, 4 mM DTT, 50 mM KPi pH 7.4, TM2 = DIR domain transition
DIR domain of OsJAC1 [4] = molecular target: T3, DIR domain of OsJAC1; assay: nano differential scanning fluorimetry; near-UV CD; assay type: binding; details: 50 mM sugar, 4 mM DTT, 50 mM KPi pH 7.4; CD with 1 mM sugar
[5] = molecular target: DIR (dirigent) domain protein of OsJAC1, His6-tagged (Oryza sativa); assay: SEC; HiLoad 16/600 Superdex 200 pg; 50 mM KPi pH 7.4, 300 mM NaCl; 1 mL of 10 mg/mL protein injected, 1 mL/min; apparent masses from calibration proteins
[6] = molecular target: the molecule itself; assay: dynamic light scattering; OsJAC1 1.1 mg/mL in 15 mM TRIS-HCl pH 7.4, alone or with 150 mM CaCl2, 50 mM lactose, 150 mM MgSO4 or 4 mM DTT; apparent molecular masses

Molecule: OC[C@H]1O[C@@H](O[C@@H]2[C@H](O)[C@@H](O)C(O)O[C@@H]2CO)[C@H](O)[C@@H](O)[C@H]1O (some centres unmarked) [galactobiose]
dTM2 (DIR domain of OsJAC1 [4]): galactobiose (DIR domain) and laminaribiose (JRL domain), caused major shifts in the CD spectra

Molecule: DIR (dirigent) domain protein of OsJAC1, His6-tagged (domain or fragment)
stoichiometry N [5]: 2 and 4

Molecule: OC[C@H]1O[C@@H](O[C@H]2[C@H](O)[C@@H](O)C(O)O[C@@H]2CO)[C@H](O)[C@@H](O)[C@H]1O (some centres unmarked) [lactose]
dTM2 (DIR domain of OsJAC1 [2]): (e.g., galactose and lactose) had a positive impact on TM2 of the DIR domain
dTM2 (OsJAC1 [3]): (e.g., galactose and lactose) had a positive impact on TM2 of the DIR domain

B1: monocot chimeric jacalin OsJAC1 from Oryza sativa, full-length protein, His6-tagged (natural protein)
chain: MADPSKLQITPCGMLVQGNQINFTKLYLHHTPAGPEQNQSAVTSNDKKTGLGCIVVNNWSVYDGIGSDAKLVAYAKGLHVFAGAWHNSFSLVFEDERLKGSTLQVMGLIVEEGDWAIVGGTGQFAMATGVILKKMQEQKQYGNIIELTIHGFCPLLKGSQCPVTKIGPWGSSHEGTVQDITESPKRLESITLYHGWSVDSISFTYLDHAGEKHKAGPWGGPGGDPIMIEFGSSEFLKEVSGTFGPYEGSTVITSINFITNKQTYGPFGRQEGTPFSVPAQNNSSIVGFFGRSGKYINAVGVYVQPI
notes: OsJAC1 of rice (Oryza sativa), full-length protein; numbers count on: the His6-tagged construct as printed (23 tag and linker residues before M24); no cleavage of the tag is described; also called full-length OsJAC1; chimeric lectin OsJAC1; source: E. coli BL21(DE3), purified (IMAC on Ni-NTA, SEC); not shown: His6, N-terminal, kept
binding result [6]: binds

Further lines, results first:

dTM1 (OsJAC1 [1]): 1 K
dTM1 (JRL domain of OsJAC1): 1 K
Molecule: OC[C@H]1OC(O)[C@@H](O)[C@@H](O)[C@@H]1O (some centres unmarked) [mannose]

dTM1 (OsJAC1 [1]): 1 K
dTM1 (JRL domain of OsJAC1): 1 K
Molecule: OC[C@H]1OC(O)[C@H](O)[C@@H](O)[C@@H]1O (some centres unmarked) [glucose]

dTM2 (DIR domain of OsJAC1 [2]; printed as up to): ~ 3 K
dTM2 (OsJAC1 [3]; printed as up to): ~ 2 K
Molecule: OC[C@H]1OC(O)[C@H](O)[C@@H](O)[C@H]1O (some centres unmarked) [galactose]
